Experimental data taken from patent US7432392B2, “Ester derivatives and medical use thereof” (Japan Tobacco Inc., priority 2003, dated 2008).

Tests used:
[1] = target: T1, Microsomal triglyceride transfer protein (MTP) from bovine liver (Bos taurus, UniProt P55156); assay: Inhibition of interliposomal triglyceride (TG) transfer activity by MTP; format: biochemical; conditions: MTP-mediated TG transfer between donor and acceptor liposomes, 37° C., one hour
T1 construct: the purified MTP was used for the test; from tissue; host or cells: bovine liver
T1 sequence (P55156 12-887): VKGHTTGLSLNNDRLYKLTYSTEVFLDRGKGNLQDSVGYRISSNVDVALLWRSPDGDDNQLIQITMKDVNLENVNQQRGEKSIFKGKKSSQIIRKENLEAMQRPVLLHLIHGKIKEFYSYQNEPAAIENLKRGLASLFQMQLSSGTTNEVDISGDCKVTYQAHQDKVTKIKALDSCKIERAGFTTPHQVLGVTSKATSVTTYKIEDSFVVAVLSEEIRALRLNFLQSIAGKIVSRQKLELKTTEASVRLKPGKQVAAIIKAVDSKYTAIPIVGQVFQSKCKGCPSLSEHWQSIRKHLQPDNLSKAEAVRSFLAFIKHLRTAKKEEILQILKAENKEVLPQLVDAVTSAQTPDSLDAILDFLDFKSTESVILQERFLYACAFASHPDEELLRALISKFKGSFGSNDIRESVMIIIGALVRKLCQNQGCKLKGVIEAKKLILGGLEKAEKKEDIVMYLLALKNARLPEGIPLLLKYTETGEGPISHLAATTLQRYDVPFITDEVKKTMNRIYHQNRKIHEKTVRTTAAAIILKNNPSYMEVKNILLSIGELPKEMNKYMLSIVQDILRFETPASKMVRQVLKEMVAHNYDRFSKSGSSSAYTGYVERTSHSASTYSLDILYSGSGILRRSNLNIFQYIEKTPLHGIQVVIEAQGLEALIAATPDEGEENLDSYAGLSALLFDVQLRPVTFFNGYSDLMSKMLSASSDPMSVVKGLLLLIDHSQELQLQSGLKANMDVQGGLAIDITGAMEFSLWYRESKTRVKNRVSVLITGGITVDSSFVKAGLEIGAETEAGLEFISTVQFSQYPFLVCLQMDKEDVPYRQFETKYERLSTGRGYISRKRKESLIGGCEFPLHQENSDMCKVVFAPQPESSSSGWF
T1 sequence (P05307 21-510 partner): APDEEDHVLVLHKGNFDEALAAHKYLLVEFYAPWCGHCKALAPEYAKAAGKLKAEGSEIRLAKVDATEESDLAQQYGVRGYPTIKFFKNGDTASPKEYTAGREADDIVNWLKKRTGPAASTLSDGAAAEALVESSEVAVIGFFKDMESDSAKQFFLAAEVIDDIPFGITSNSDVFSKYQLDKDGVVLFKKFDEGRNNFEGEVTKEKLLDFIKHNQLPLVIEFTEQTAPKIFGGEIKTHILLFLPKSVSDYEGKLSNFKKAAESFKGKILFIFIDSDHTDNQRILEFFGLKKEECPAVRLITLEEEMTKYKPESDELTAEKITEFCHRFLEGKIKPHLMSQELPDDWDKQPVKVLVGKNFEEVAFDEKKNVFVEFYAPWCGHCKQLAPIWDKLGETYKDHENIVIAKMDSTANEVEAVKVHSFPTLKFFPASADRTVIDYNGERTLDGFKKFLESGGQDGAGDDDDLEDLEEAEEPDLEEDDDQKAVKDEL
Procedure, shortened: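 Partially purified bovine liver MTP (DEAE chromatography) was incubated 1 h at 37° C with ^14C-triolein donor SUV liposomes and unlabeled acceptor liposomes in pH 7.4 Tris buffer with 0.5% BSA. Donor was removed with DEAE cellulose and acceptor radioactivity counted. IC50 came from blank-corrected inhibition relative to DMSO.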

[2] = Metabolic stability test in small intestine S9 (human); format: in vitro ADME; conditions: Human small intestine S9, 2 mg protein/mL, 37° C.
Protocol: (§1) Human and hamster liver S9 (final concentration: 2 mg protein/mL), and human and hamster small intestine S9 (final concentration: 2 mg protein/mL) were each suspended in 100 mM potassium phosphate buffer (pH 7.4, containing β-nicotinamide adenine dinucleotide phosphate: 1.3 mM, D-glucose-6-phosphate: 3.3 mM, magnesium chloride: 3.3 mM, and glucose-6-phosphate dehydrogenase: 0.4 U/mL). The suspensions were mixed with a solution of a sample (Example 1) in DMSO. The solutions were incubated at 37° C. for 0, 10 and 60 minutes, and an organic solvent was added thereto. The solutions were centrifuged, and the concentration of the sample (unchanged form) in the supernatant was determined by high performance liquid chromatography/mass spectrometry (LC/MS). Based on the data obtained, remaining rate (%) was calculated according to the following equation. Remaining rate(%)=amount of sample 10 or 60 minutes after incubation/amount of sample at zero time after incubation×100

[3] = Metabolic stability test in small intestine S9 (hamster); format: in vitro ADME; conditions: Hamster small intestine S9, 2 mg protein/mL, 37° C.
Protocol: as §1

SMILES: CCOC(=O)C(COC(=O)Cc1ccc(NC(=O)c2ccccc2-c2ccc(C(F)(F)F)cc2)c(OC(C)=O)c1)(C(=O)OCC)c1ccccc1 [Example 1, 2-(2-{3-acetoxy-4-[(4′-trifluoromethyl-biphenyl-2-carbonyl)amino]phenyl}acetoxymethyl)-2-phenylmalonic acid diethyl ester]
- IC50 [1]: < 10 nM
- Remaining rate (%) after 10 minutes ([2]; 10 minutes): 7.5%
- Remaining rate (%) after 60 minutes ([2]; 60 minutes): 1.1%
- Remaining rate (%) after 10 minutes ([3]; 10 minutes): 4.1%
- Remaining rate (%) after 60 minutes ([3]; 60 minutes): 0.0%
